Patent publication US20150210717A1, “SPECIFIC INHIBITORS OF PROTEIN P21 AS THERAPEUTIC AGENTS” (BADEN-WÜRTTEMBERG STIFTUNG GMBH, priority 2012, published 2015)

What was measured:
p21 promoter = assay: Cell-based p21 promoter luciferase screen with IC50 validation in H1299 cells with doxycycline-inducible p53; settings: luciferase under p21 promoter, about 20 hours
Method: A cell-based screen was carried out to identify p21 inhibitors (FIG. 1a). H1299 cells (a cell line having a deletion in the p53 locus) were used. The H1299 cells contain a TetOn system for the inducible expression of p53. In addition, they contain luciferase under the control of the p21 promoter, which is activated by p53. Intracellular p53 expression was induced with doxycycline (0.5 μg/ml). Immediately thereafter, cells were exposed to test substances (5 μM) of the ChemBioNet collection (Leibniz Institut far Molekulare Pharmakologie, Berlin). About 20 hours later, cells were lysed and luciferase activity was determined. […]

[1] = system: wound healing in C57BL/6 mice; assay: Wound healing after skin biopsy in C57BL/6 mice, intradermal injection; type: in vivo
From the text: FIG. 4: I-18 treatment improves wound healing in 24 week C57BL/6 mice Skin-biopsies (4-5 mm) were taken at Day 0 (D0) and lesions were either treated with 118 inhibitor (right panel) or DMSO treated as control (left panel).
FIG. 5: Depicts a statistic evaluation of the wound healing area 0, 2, and 4 days after application of I18 or placebo to wound area. Skin biopsies (4-5 mm) were taken at Day 0 of young and old C57Bl6 mice and lesions were either treated with I18 inhibitor or DMSO. […] This trend further increased at Day 4.
Skin-biopsies (4-5 mm) were taken at Day 0 (D0) and lesions were either treated with I18 compound (FIG. 4, right panel) or DMSO as control (FIG. 4, left panel) by intradermal injection [50 μM].

p21-mRNA = p21-mRNA expression by qPCR in organs of Nothobranchius furzeri after intraperitoneal injection; type: in vivo; settings: all tissues tested, 10 μM intraperitoneal, 48 h post treatment
Method: FIG. 6: Decreased p21-mRNA expression in different organs of model organism Nothobranchius furzeri in response to I18-inhibitor treatment. p21-mRNA expression in different organs was analysed by quantitative PCR (qPCR) in response to treatment with the p21-inhibitor I18. Upper panel depicts the fold expression difference of p21-mRNA relative to tbp (TATA-box binding protein). Lower panel depicts fold expression of p21-mRNA relative to control (DMSO-treated animals). Note that there is an over 2-fold reduction in all tissues tested indicating the efficiency of p21-inhibitors across different species. 10 weeks old Nothobranchius furzeri were either injected intraperitoneal with I18-compound [10 μM] or with DMSO as control and sacrificed 48 h post treatment. RNA of various tissues was harvested and p21-mRNA expression was measured using quantitative PCR (qPCR). Fold expression was calculated relative to house-keeping gene tbp (TATA-box binding protein) (FIG. 6, upper panel) or control animals (FIG. 6, lower panel).

[2] = Homo sapiens, NCI-H1299, p53 induced with doxycycline 0.5 μg/ml

| IC50 (p21 promoter; [2]) | Compound | other results |
| --- | --- | --- |
| 1070 nM | O=c1c2ccccc2c2nccc3c4cc(O)ccc4n1c32 [P21, 5-hydroxy-9H-benzo[c]indolo[3,2,1-ij][1,5]naphthyridin-9-one] |  |
| 1720 nM | O=C(Nc1ccc(OCC(F)(F)C(F)F)c(C(F)(F)F)c1)c1ccccc1O [K2, 2-Hydroxy-N-[4-(2,2,3,3-tetrafluoropropoxy)-3-(trifluoromethyl)phenyl)benzamide] |  |
| 170 nM | Cc1ccc2[nH]c3c(c2c1)CCCC3Nc1ccccc1 (centres unmarked) [I18, 6-methyl-N-phenyl-2,3,4,9-tetrahydro-1H-carbazol-1-amine] | wound healing in old treated mice versus p21-deficient mice ([1]; after 4 days, old mice): comparable to p21-deficient mice; wound healing of old mice compared to mock treated control mice of the same age ([1]; day 2, old C57Bl6 mice, trend further increased at day 4): significantly improved; wound healing compared to DMSO treated control mice ([1]; day 2 and 4, skin biopsies 4-5 mm, intradermal injection 50 μM): significantly improved; reduction of p21-mRNA expression relative to control (DMSO-treated animals) (p21-mRNA): over 2 fold |
| 1130 nM | COc1ccc(C2C(C#N)=C(N)Oc3c2ccc2ccccc32)cc1C (centres unmarked) [A6, 2-amino-4-(4-methoxy-3-methylphenyl)-4H-benzo[h]chromene-3-carbonitrile] |  |

The next lines start with the molecule.

| Compound | IC50 (p21 promoter; [2]) | other results |
| --- | --- | --- |
| CCc1ccc2c(c1)C1(NN=C(c3cccc4ccccc34)S1)C(=O)N2 (centres unmarked) [O6, 5-Ethyl-5′naphthalen-1-ylspiro[1H-indole-3,2′-3H-1,3,4-thiadiazole]-2-one] | 3680 nM |  |
| NS(=O)(=O)c1ccc(CCNc2ncnc3c2c(-c2ccccc2)cn3-c2ccc(Br)cc2)cc1 [F3, 4-[2-[[7-(4-Bromophenyl)-5-phenylpyrrolo[2,3-d]pyrimidin-4-yl]amino]ethyl]benzenesulfonamide] | 6080 nM |  |
| CC(C)c1ccc(-c2c(C#N)c(N)n3c(nc4ccccc43)c2C#N)cc1 [N13, 1-Amino-3-(4-propan-2-ylphenyl)pyrido[1,2-a]benzimidazole-2,4-dicarbonitrile] | 1110 nM |  |
| COc1ccc(C(=O)Nc2nc(NC(=O)c3ccc(F)cc3)nn2-c2ccccc2)cc1 [E6, N-[5-[(4-Fluorobenzoyl)amino]-2-phenyl-1,2,4-triazol-3-y1]-4-methoxybenzamide] |  | IC50 (p21 promoter; p53 induced with doxycycline 0.5 μg/ml): 490 nM |
| Cc1c(Br)ccc(Nc2c([N+](=O)[O-])cc3c4c(cccc24)C(=O)N(CCO)C3=O)c1C [M3, 6-(4-Bromo-2,3-dimethylanilino)-2-(2-hydroxyethyl)-5-nitrobenzo[de]isoquinoline-1,3-dione] | 3580 nM |  |
| CCOC(=O)c1ccc(Nc2nc3nonc3nc2Nc2cccc(C)c2C)cc1 [A13, Ethyl-4-[[5-(2,3-dimethylanilino)-[1,2,5]oxadiazolo[3,4-b]pyrazin-6-yl]amino]benzoate] | 760 nM |  |
